The values that follow are results of earlier work, collected in patent publication US20150072881A1 (priority 2010, published 2015).

In data set [1] the test system is genes (and gene products, eg., mRNA or protein). The settings on record: in vivo.
The test system of the next data set is Pomc. The settings on record: anterior pituitary cell line.
The test system of a further data set is dopamine. The settings on record: directly or indirectly.
Another data set concerns pronociceptin (PNOC). The settings on record: hippocampus of alcoholics.
The subject of data set [2] is opiate receptor-like 1 (OPRL-1). The settings on record: amygdala of alcoholics.
Another data set deals with Sgk1. The settings on record: Western blotting; morphine-induced.
The next data set deals with Tsc22d3. The settings on record: Western blotting; drug-regulated gene. In general terms: In western blotting, separated proteins are transferred to a membrane and probed.
Data set [3] has as its system PC12 clonal cell line from chromaffin adrenal cells.
Data set [4] deals with Leptin receptor expression in VTA.

Entries after “also recorded” stand apart in the source; their conditions may differ. Ends that are not written are not given here.

`N[C@@H]1C[C@H]1c1ccccc1` (racemic) [Tranylcypromine]: in data set [1], the mRNA increase entry was “dopamine D3 receptor mRNA in shell of the nucleus accumbens”.

As to `Nc1ncnc2c1ncn2[C@@H]1O[C@@H]2COP(O)(=S)O[C@H]2[C@H]1O` (single isomer, unassigned) [Rp-cAMPS, adenosine-3′,5′ cyclinc monophosphorothioate, Rp-isomer], the “blockade of substance-induced mRNA increase” value in [1] was “CART - effect attenuated by inhibition of PKA with H89 [N-(2-”.

As to `CN(C)CCC=C1c2ccccc2CCc2ccccc21` [Amitriptyline], the mRNA increase entry in data set [1] is “dopamine D3 receptor mRNA in shell of the nucleus accumbens;; also recorded: D1 and D2 receptors [1]”.

On to `CC(N)Cc1ccccc1` (stereo not drawn) [Amphetamine], for which, in data set [1], the mRNA decrease result was “Penk in CeA and anterior medial CPu [1]; also recorded: GluR1 in nucleus acumbens shell, GluR2 in core and shell [3]”; the mRNA increase result is “Penk in frontal cortex; Pdyn in AMG [1]; also recorded: mGluR8 in rat dorsal and ventral striatum, as well as cortex,; also recorded: After 3 days of withdrawl, GluR1 in PFC [3]; also recorded: Mu receptors in VTA; Pdyn in CPu and NAc [1]”.

With `CCCCCCC(C)(C)c1ccc([C@@H]2C[C@H](O)CC[C@H]2CCCO)c(O)c1` [CP-55,940], in data set [1], the mRNA increase entry was “Increased Penk in NAc and CPu, Tu and Pir, HPT (both PVN”.

Turning to `CNCCCN1c2ccccc2CCc2ccccc21` [Desipramine], the mRNA increase entry in data set [1] is “dopamine D3 receptor mRNA in shell of the nucleus accumbens”.

For the molecule `COc1ccc2c(c1)[C@]13CCCC[C@@H]1[C@H](C2)N(C)CC3` [Dextromethorphan], the mRNA increase in data set [1] is 40 mg/kg ip in rats caused increase of tyrosine hydroxylase (TH).

In the case of `Cl.O=S(=O)(NCCNCC=Cc1ccc(Br)cc1)c1cccc2cnccc12` [H89, N-(2-[p-bromocinnamylamino]ethyl)-5-isoquinoline-sulfonamide hudrochloride], the “blockade of substance-induced mRNA increase” value in [1] is “CART - effect attenuated by inhibition of PKA with H89 [N-(2-”.

As for `CC(=O)Oc1ccc2c3c1O[C@H]1[C@@H](OC(C)=O)C=C[C@H]4[C@@H](C2)N(C)CC[C@@]341` [Heroin], in data set [1], the mRNA decrease result is “DAT in paranigral nucleus and mesolimbic division of the ventral tegmental; also recorded: area. Reduction of Nurr1expression with age in heroin users [2]; also recorded: tyrosine hydroxylase in mesolimbic dopamine neurons [3]”; the mRNA increase result was “heroin abuse. Express higher Penk mRNA [1]; also recorded: TH and alpha synuclein in VTA PN in heroin users with no; also recorded: Penk; NAc PENK in Met/Met (control) heroin abusers [3]”.

As for `CN(C)CCCN1c2ccccc2CCc2ccccc21` [Imipramine], the mRNA increase result in [1] is listed as “dopamine D3 receptor mRNA in shell of the nucleus accumbens;”.

For the molecule `CC(C)C[C@H](N)C(=O)O` [Leucine], in data set [1], the mRNA decrease result is “FTO in hypothalamus of rodents [1]”.

As to `CN[C@@H](C)Cc1ccccc1` [Methamphetamine], in data set [1], the mRNA increase result was “Pdyn in HPT [1]; also recorded: Increased TNF-alpha in normal animals [2]”.

Turning to `CCCCCCCCCC(=O)O[C@H]1CC[C@H]2[C@@H]3CCC4=CC(=O)CC[C@@H]4[C@H]3CC[C@]12C` [Nandrolone decanoate], in data set [1], the mRNA decrease entry was “Dopamine D(1)-receptor subtype in the caudate putamen and nucleus”; the mRNA increase entry was “Dopamine D(2) receptor at the lowest doeses in the caudate”.

As to `CC1NCCc2cc(O)c(O)cc21` (stereo not drawn) [R (+)- salsolinol], the mRNA decrease entry in the data set with Pomc was “POMC anterior pituitary cell line [1]”. Besides, in the data set on cAMP, the “cAMP level / production” value is “whereas R(+)- SAL does not affect cAMP production [1]”.

For `CCCCC/C=C\C/C=C\C/C=C\C/C=C\CCCC(=O)N[C@H](C)CO` [R-methanandamide], the mRNA increase entry in [1] was “Increased Penk in NAc and CPu, Tu and Pir, HPT (both PVN”.

In the case of `C[C@@H]1NCCc2cc(O)c(O)cc21` [S(−)-salsolinol], the mRNA decrease entry in the data set with Pomc is “POMC anterior pituitary cell line [1]”. The “cAMP level / production” value in the data set on cAMP is on record as “Decrease in cAMP level occurs after treatment with S(−)-SAL,”.

With `Cc1c(C(=O)NN2CCCCC2)nn(-c2ccc(Cl)cc2Cl)c1-c1ccc(Cl)cc1` [SR 141716A], the “inhibition of THC-induced MAPK/ERK activation” value in the data set with MAPK/ERK (in vivo) was “accumbens. This activation is totally inhibited by selective”.

For `CCCCCc1cc(O)c2c(c1)OC(C)(C)[C@@H]1CCC(C)=C[C@@H]21` [THC, Delta-tetrahydrocannabinol], the “activation (phosphorylation) of MAPK/ERK” value in the data set on MAPK/ERK (dorsal striatum and nucleus accumbens) was “THC induces a progressive and transient activation”. The “effect on dopamine release or re-uptake” value in the data set with dopamine is recorded as “enhance release or block re-uptake of dopamine”. For the same molecule, the mRNA increase result in [1] is “Increased Penk in NAc and CPu, Tu and Pir, HPT (both PVN; also recorded: BDNF in reward center (nucleus accumbens, medial prefrontal”.

For the molecule `CCCN(CCC)C1Cc2cc(OC)c(OC)cc2C1` [U99194A], in [1], the mRNA increase result is on record as “c-fos (similar pattern to that produced by d-amphetamine) in”.

Regarding `CCO` [ethanol], in the data set on dopamine, the “effect on dopamine release or re-uptake” value is on record as “enhance release or block re-uptake of dopamine”. The “pronociceptin (PNOC) mRNA decrease” value with pronociceptin (PNOC) was “pronociceptin (PNOC), 1.7-fold in hippocampus of alcoholics”. For the same molecule, the “opiate receptor-like 1 (OPRL-1) mRNA decrease” value in data set [2] was “opiate receptor-like 1 (OPRL-1) 1.4-fold in amygdala of alcoholics [2]”.

On to `CN1CC[C@]23c4c5ccc(O)c4O[C@H]2[C@@H](O)C=C[C@H]3[C@H]1C5` [morphine], for which, in the data set with Sgk1, the “level of the Sgk1 protein (significant decrease)” value is given as 0.75 fold. Further, the “Tsc22d3 protein level (increase)” value with Tsc22d3 was “approximately 1.5 fold”.

Regarding `CN1CCCC1c1cccnc1` (stereo not drawn) [nicotine], in the data set with dopamine, the “effect on dopamine release or re-uptake” value is “enhance release or block re-uptake of dopamine”. Moreover, in data set [1], the mRNA decrease entry was “POMC in MBH which was observed after 21 days of spontaneous; also recorded: withdrawl from nicotine; Pdyn in ventral shell of NAc [1]” and the mRNA increase result was “Mu receptors in VTA; POMC in Arc; POMC in AL of the; also recorded: pituitary; Pdyn in CPu after nicotine withdrawl; Pdvn in HPT [1]; also recorded: c-fos in bed nucleus of stria terminalis, nucleus accumbens shell; also recorded: CREB phosphorylation when exposed to situation where; also recorded: MOR expression [4]; also recorded: c fos in limbic regions of adolescents [5]”. Besides, the mRNA decrease entry in data set [3] is “Dopamine D2 receptor and tyrosine hydroxylase in PC12 clonal cell line”.

On to `CC(N)Cc1ccc(Cl)cc1` (stereo not drawn) [para-chloroamphetamine], for which, in data set [1], the mRNA decrease entry was “[1] repeated stress in pre-treated rats led to downregulation of BDNF mRNA” and the mRNA increase entry is “[1] repeated stress in pre-treated animals led to less”.

As for `CCN1CCC[C@H]1CNC(=O)c1c(O)c(Cl)cc(Cl)c1OC` [raclopride], in data set [1], the “blockade of substance-induced mRNA increase” value was “Cart in nucleus accumbens (effect blocked by both SCH-”.

In the case of “Leptin: Leptin administered directly to VTA”, in [4] (VTA), the firing rate result is recorded as “reduction” and the “intracellular JAK-STAT pathway” value was “activates”. In [4] (direct administration to VTA), the food intake result is recorded as “Direct administration of leptin to VTA caused decreased food intake while”.

On to “Substance P (RPKPQQFFGLM; not fully specified (C-terminus); ends and bridges not checked; UniProt P20366 58-68, looked up)”, for which the mRNA decrease entry in data set [1] is “D2 receptor in nucleus accumbens and frontal cortex [1]”.
